{"source": "ChEMBL document CHEMBL4680338", "about": "“Sinomenine inhibits hypoxia induced breast cancer side population cells metastasis by PI3K/Akt/mTOR pathway” (Bioorg Med Chem, 2021)", "key": {"[1]": {"test_system": "MDA-MB-231", "experiment": "Cytotoxicity against human MDA-MB-231 cells assessed as reduction in cell viability at 1 to 4 mM measured after 24 hrs under normoxia condition by CCK-8 assay", "assay_type": "functional, cell-based", "conditions": "dose 1-4 mM"}, "[2]": {"test_system": "MCF7", "experiment": "Cytotoxicity against human MCF7 cells assessed as reduction in cell viability at 1 to 4 mM measured after 24 hrs under normoxia condition by CCK-8 assay", "assay_type": "functional, cell-based", "conditions": "dose 1-4 mM"}, "[3]": {"test_system": "MDA-MB-231", "experiment": "Cytotoxicity against human MDA-MB-231 cells assessed as reduction in cell viability at 0.25 to 1 mM measured after 24 hrs under hypoxia condition by CCK-8 assay", "assay_type": "functional, cell-based", "conditions": "dose 0.25-1 mM"}, "[4]": {"test_system": "MCF7", "experiment": "Cytotoxicity against human MCF7 cells assessed as reduction in cell viability at 0.25 to 1 mM measured after 24 hrs under hypoxia condition by CCK-8 assay", "assay_type": "functional, cell-based", "conditions": "dose 0.25-1 mM"}, "[5]": {"test_system": "MDA-MB-231", "experiment": "Cytotoxicity against human MDA-MB-231 side population cells assessed as reduction in cell viability at 0.25 to 1 mM measured after 24 hrs under hypoxia condition by CCK-8 assay", "assay_type": "functional, cell-based", "conditions": "dose 0.25-1 mM"}, "[6]": {"test_system": "MDA-MB-231", "experiment": "Cytotoxicity against human MDA-MB-231 side population cells assessed as reduction in cell viability at 0.25 to 1 mM measured after 24 hrs by CCK-8 assay", "assay_type": "functional, cell-based", "conditions": "dose 0.25-1 mM"}, "[7]": {"test_system": "MCF7", "experiment": "Cytotoxicity against human MCF7 side population cells assessed as reduction in cell viability at 0.25 to 1 mM measured after 24 hrs under hypoxia condition by CCK-8 assay", "assay_type": "functional, cell-based", "conditions": "dose 0.25-1 mM"}, "[8]": {"test_system": "MCF7", "experiment": "Cytotoxicity against human MCF7 side population cells assessed as reduction in cell viability at 0.25 to 1 mM measured after 24 hrs by CCK-8 assay", "assay_type": "functional, cell-based", "conditions": "dose 0.25-1 mM"}, "[9]": {"test_system": "MDA-MB-231", "experiment": "Cytotoxicity against human MDA-MB-231 side population cells assessed as reduction in cell viability at 2 to 4 mM measured after 24 hrs under hypoxia condition by CCK-8 assay", "assay_type": "functional, cell-based", "conditions": "dose 2-4 mM"}, "[10]": {"test_system": "MCF7", "experiment": "Cytotoxicity against human MCF7 side population cells assessed as reduction in cell viability at 2 to 4 mM measured after 24 hrs under hypoxia condition by CCK-8 assay", "assay_type": "functional, cell-based", "conditions": "dose 2-4 mM"}, "[11]": {"test_system": "MDA-MB-231", "experiment": "Cytotoxicity against human MDA-MB-231 side population cells assessed as reduction in cell viability at 2 to 4 mM measured after 24 hrs under normoxia condition by CCK-8 assay", "assay_type": "functional, cell-based", "conditions": "dose 2-4 mM"}, "[12]": {"test_system": "MCF7", "experiment": "Cytotoxicity against human MCF7 side population cells assessed as reduction in cell viability at 2 to 4 mM measured after 24 hrs under normoxia condition by CCK-8 assay", "assay_type": "functional, cell-based", "conditions": "dose 2-4 mM"}, "[13]": {"test_system": "MDA-MB-231", "experiment": "Decrease in hypoxia-induced cell invasion in human MDA-MB-231 side population cells at 0.25 to 1 mM measured after measured after 24 hrs by crystal violet staining based transwell assay", "assay_type": "functional", "conditions": "dose 0.25-1 mM"}, "[14]": {"test_system": "MCF7", "experiment": "Decrease in hypoxia-induced cell invasion in human MCF7 side population cells at 0.25 to 1 mM measured after measured after 24 hrs by crystal violet staining based transwell assay", "assay_type": "functional", "conditions": "dose 0.25-1 mM"}, "[15]": {"test_system": "MDA-MB-231", "experiment": "Inhibition of hypoxia-induced cell invasion in human MDA-MB-231 cells at 0.25 to 1 mM measured after measured after 24 hrs by crystal violet staining based transwell assay", "assay_type": "functional", "conditions": "dose 0.25-1 mM"}, "[16]": {"test_system": "MCF7", "experiment": "Inhibition of hypoxia-induced cell invasion in human MCF7 cells at 0.25 to 1 mM measured after measured after 24 hrs by crystal violet staining based transwell assay", "assay_type": "functional", "conditions": "dose 0.25-1 mM"}, "[17]": {"test_system": "MDA-MB-231", "experiment": "Suppression of hypoxia-induced upregulation of N-cadherin expression in human MDA-MB-231 side population cells at 0.25 to 1 mM by Western blot analysis", "assay_type": "functional", "conditions": "dose 0.25-1 mM"}, "[18]": {"test_system": "MDA-MB-231", "experiment": "Suppression of hypoxia-induced upregulation of vimentin expression in human MDA-MB-231 side population cells at 0.25 to 1 mM by Western blot analysis", "assay_type": "functional", "conditions": "dose 0.25-1 mM"}, "[19]": {"test_system": "MDA-MB-231", "experiment": "Suppression of hypoxia-induced upregulation of MMP2 expression in human MDA-MB-231 side population cells at 0.25 to 1 mM by Western blot analysis", "assay_type": "functional", "conditions": "dose 0.25-1 mM"}, "[20]": {"test_system": "MDA-MB-231", "experiment": "Suppression of hypoxia-induced upregulation of MMP9 expression in human MDA-MB-231 side population cells at 0.25 to 1 mM by Western blot analysis", "assay_type": "functional", "conditions": "dose 0.25-1 mM"}, "[21]": {"test_system": "MDA-MB-231", "experiment": "Reversal of hypoxia-induced downregulation of E-cadherin expression in human MDA-MB-231 side population cells at 0.25 to 1 mM by Western blot analysis", "assay_type": "functional", "conditions": "dose 0.25-1 mM"}, "[22]": {"test_system": "MDA-MB-231", "experiment": "Suppression of hypoxia-induced upregulation of N-cadherin expression in human MDA-MB-231 cells at 0.25 to 1 mM by Western blot analysis", "assay_type": "functional, cell-based", "conditions": "dose 0.25-1 mM"}, "[23]": {"test_system": "MDA-MB-231", "experiment": "Suppression of hypoxia-induced upregulation of vimentin expression in human MDA-MB-231 cells at 0.25 to 1 mM by Western blot analysis", "assay_type": "functional, cell-based", "conditions": "dose 0.25-1 mM"}, "[24]": {"test_system": "MDA-MB-231", "experiment": "Suppression of hypoxia-induced upregulation of MMP2 expression in human MDA-MB-231 cells at 0.25 to 1 mM by Western blot analysis", "assay_type": "functional, cell-based", "conditions": "dose 0.25-1 mM"}, "[25]": {"test_system": "MDA-MB-231", "experiment": "Suppression of hypoxia-induced upregulation of MMP9 expression in human MDA-MB-231 cells at 0.25 to 1 mM by Western blot analysis", "assay_type": "functional, cell-based", "conditions": "dose 0.25-1 mM"}, "[26]": {"test_system": "MDA-MB-231", "experiment": "Reversal of hypoxia-induced downregulation of E-cadherin expression in human MDA-MB-231 cells at 0.25 to 1 mM by Western blot analysis", "assay_type": "functional, cell-based", "conditions": "dose 0.25-1 mM"}, "[27]": {"test_system": "MDA-MB-231", "experiment": "Inhibition of hypoxia-induced activation of PI3K/Akt/mTOR signaling in human MDA-MB-231 side population cells assessed as decrease in phosphorylated PI3K level at 0.25 to 1 mM measured after 24 hrs by Western blot analysis", "conditions": "dose 0.25-1 mM"}, "[28]": {"test_system": "MDA-MB-231", "experiment": "Inhibition of hypoxia-induced activation of PI3K/Akt/mTOR signaling in human MDA-MB-231 side population cells assessed as decrease in phosphorylated Akt level at 0.25 to 1 mM measured after 24 hrs by Western blot analysis", "conditions": "dose 0.25-1 mM"}, "[29]": {"test_system": "MDA-MB-231", "experiment": "Inhibition of hypoxia-induced activation of PI3K/Akt/mTOR signaling in human MDA-MB-231 side population cells assessed as decrease in phosphorylated mTOR level at 0.25 to 1 mM measured after 24 hrs by Western blot analysis", "conditions": "dose 0.25-1 mM"}, "[30]": {"test_system": "MDA-MB-231", "experiment": "Inhibition of hypoxia-induced activation of PI3K/Akt/mTOR signaling in human MDA-MB-231 side population cells at 1 nM measured after 24 hrs in presence of IGF-1 by Western blot analysis"}, "[31]": {"test_system": "MDA-MB-231", "experiment": "Suppression of hypoxia-induced upregulation of MMP2 expression in human MDA-MB-231 cells at 1 nM measured after 24 hrs in presence of IGF-1 by Western blot analysis", "assay_type": "functional, cell-based"}, "[32]": {"test_system": "MDA-MB-231", "experiment": "Suppression of hypoxia-induced upregulation of MMP9 expression in human MDA-MB-231 cells at 1 nM measured after 24 hrs in presence of IGF-1 by Western blot analysis", "assay_type": "functional, cell-based"}}, "note": "Activity calls are given as the source filed them. The rule behind the calls is not given here.", "data": [{"smiles": "COC1=C[C@@H]2[C@@H]3Cc4ccc(OC)c(O)c4[C@]2(CCN3C)CC1=O", "values": [{"measurement": "Activity", "setting": "[1]", "result": "Active"}, {"measurement": "Activity", "setting": "[2]", "result": "Active"}, {"measurement": "Activity", "setting": "[3]", "result": "inactive"}, {"measurement": "Activity", "setting": "[4]", "result": "inactive"}, {"measurement": "Activity", "setting": "[5]", "result": "inactive"}, {"measurement": "Activity", "setting": "[6]", "result": "inactive"}, {"measurement": "Activity", "setting": "[7]", "result": "inactive"}, {"measurement": "Activity", "setting": "[8]", "result": "inactive"}, {"measurement": "Activity", "setting": "[9]", "result": "Active"}, {"measurement": "Activity", "setting": "[10]", "result": "Active"}, {"measurement": "Activity", "setting": "[11]", "result": "Active"}, {"measurement": "Activity", "setting": "[12]", "result": "Active"}, {"measurement": "Activity", "setting": "[13]", "result": "Active"}, {"measurement": "Activity", "setting": "[14]", "result": "Active"}, {"measurement": "inhibition", "setting": "[15]", "result": "Active"}, {"measurement": "inhibition", "setting": "[16]", "result": "Active"}, {"measurement": "Activity", "setting": "[17]", "result": "Active"}, {"measurement": "Activity", "setting": "[18]", "result": "Active"}, {"measurement": "Activity", "setting": "[19]", "result": "Active"}, {"measurement": "Activity", "setting": "[20]", "result": "Active"}, {"measurement": "Activity", "setting": "[21]", "result": "Active"}, {"measurement": "Activity", "setting": "[22]", "result": "Active"}, {"measurement": "Activity", "setting": "[23]", "result": "Active"}, {"measurement": "Activity", "setting": "[24]", "result": "Active"}, {"measurement": "Activity", "setting": "[25]", "result": "Active"}, {"measurement": "Activity", "setting": "[26]", "result": "Active"}, {"measurement": "inhibition", "setting": "[27]", "result": "Active"}, {"measurement": "inhibition", "setting": "[28]", "result": "Active"}, {"measurement": "inhibition", "setting": "[29]", "result": "Active"}, {"measurement": "inhibition", "setting": "[30]", "result": "inactive"}, {"measurement": "Activity", "setting": "[31]", "result": "inactive"}, {"measurement": "Activity", "setting": "[32]", "result": "inactive"}]}]}
